Laboratory results: patent US20240116985A1, “STAPLED PEPTIDES AND METHODS THEREOF” (priority 2020, published 2024)
Read-outs that look alike come from different tables or passages of the source.

Assays:
CHI Log D procedure = format: physicochemical; conditions: for chromatographic logD: pH 7.4, CHI Log D; for CHI Log D: pH 7.4
[1] = target: T1, full-length beta-Catenin (Uniprot ID P35222) (Homo sapiens, UniProt P35222); assay: Fluorescence polarization IC50 (beta-catenin / 5FAM-TCF4 10-53 competition); format: binding
T1 construct: 10 nM full-length beta-Catenin (Uniprot ID P35222)
T1 sequence (P35222 1-781): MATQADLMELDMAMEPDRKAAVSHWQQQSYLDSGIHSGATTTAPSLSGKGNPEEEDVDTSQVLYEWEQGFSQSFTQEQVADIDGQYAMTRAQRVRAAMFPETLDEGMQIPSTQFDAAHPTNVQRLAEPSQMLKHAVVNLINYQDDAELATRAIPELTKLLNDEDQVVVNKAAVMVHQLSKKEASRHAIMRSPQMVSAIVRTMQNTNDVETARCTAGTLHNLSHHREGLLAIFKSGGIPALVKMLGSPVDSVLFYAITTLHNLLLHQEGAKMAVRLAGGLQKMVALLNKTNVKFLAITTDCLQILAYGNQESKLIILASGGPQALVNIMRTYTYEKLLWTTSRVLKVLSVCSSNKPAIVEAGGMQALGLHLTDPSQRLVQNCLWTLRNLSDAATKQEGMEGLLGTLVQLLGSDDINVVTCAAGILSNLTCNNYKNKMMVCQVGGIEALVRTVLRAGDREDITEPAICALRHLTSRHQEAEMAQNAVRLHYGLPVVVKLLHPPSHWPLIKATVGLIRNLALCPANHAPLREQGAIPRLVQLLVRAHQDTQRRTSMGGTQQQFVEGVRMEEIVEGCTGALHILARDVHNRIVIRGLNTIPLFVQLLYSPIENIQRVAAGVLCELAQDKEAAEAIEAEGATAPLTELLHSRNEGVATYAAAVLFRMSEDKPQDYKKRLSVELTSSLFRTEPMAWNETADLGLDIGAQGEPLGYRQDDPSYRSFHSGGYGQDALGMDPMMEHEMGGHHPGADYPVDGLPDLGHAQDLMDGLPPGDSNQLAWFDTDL

[2] = target: T2, beta-catenin/TCF4 engagement (Homo sapiens, UniProt P35222); assay: Nano-BRET target engagement assay (B-cat-Halo & TCF4-Luc in HEK293 cells); format: cell-based
T2 construct: expressed in transfected cells; host or cells: HEK293
T2 sequence (P35222 1-781): T1 sequence (P35222 1-781)

[3] = fluorescence polarization, beta-catenin, read-out: FP EC50
[4] = absolute IC50, read-out: NanoBRET Abs IC50

| SMILES | chromatographic logD (CHI Log D procedure) | IC50 ([1]; read-out: beta-Catenin FP IC50) [nM] | inhibition at 10 µM ([2]; HEK293, 10 uM, read-out: NanoBRET % inh @ 10 uM) [%] | CHI Log D (CHI Log D procedure) | IC50 [1, 3] [nM] | IC50 ([2]; read-out: NanoBRET Abs IC50) [µM] | IC50 [2, 4] [µM] | IC50 ([2]; read-out: NanoBRET IC50) [µM] |
| --- | --- | --- | --- | --- | --- | --- | --- | --- |
| CC(=O)N1CCC[C@]12CC=CCCCC1(CCCC=CCCCOC(=O)N3CC[C@@](C(=O)N[C@@H](Cc4ccsc4)C(=O)N[C@@H](Cc4c[nH]c5ccc(F)cc45)C(=O)N[C@@H](Cc4c[nH]cn4)C(N)=O)(C3)NC(=O)[C@H](CC(N)=O)NC(=O)[C@H](Cc3ccccc3)NC(=O)[C@H](C)NC(=O)[C@H](C)NC(=O)[C@H](CC(=O)O)NC(=O)[C@H](CC(=O)O)NC1=O)NC(=O)[C@H](CC(C)(C)C)NC(=O)[C@H](CC(=O)O)NC2=O (stereo partly drawn) [I-800, Ac-PL3-Asp-Npg-B5-Asp-Asp-Ala-Ala-Phe-Asn-PyrS2-3Thi-5FW-His-NH2] | 2 | 79 | 8.1 | – | – | – | – | – |
| CC(=O)N1CCC[C@]12CC=CCCCC1(CCCC=CCCCCOC(=O)N3CC[C@@](C(=O)N[C@@H](Cc4ccsc4)C(=O)N[C@@H](Cc4csc5ccccc45)C(=O)N[C@@H](CCC(N)=O)C(=O)N[C@@H](C)C(N)=O)(C3)NC(=O)[C@H](CC(N)=O)NC(=O)[C@H](Cc3ccccc3)NC(=O)[C@H](C)NC(=O)[C@H](C)NC(=O)[C@H](CC(=O)O)NC(=O)[C@H](CC(=O)O)NC1=O)NC(=O)[C@H](CC(C)(C)C)NC(=O)[C@H](CC(=O)O)NC2=O (stereo partly drawn) [I-825, Ac-PL3-Asp-Npg-B5-Asp-Asp-Ala-Ala-Phe-Asn-PyrS3-3Thi-BztA-Gln-Ala-NH2] | – | 15 | – | 2.028 | 15 | 27.5 | – | – |
| CC(=O)N1CCC[C@]12CC=CCCCC1(CCCC=CCCCCOC(=O)N3CC[C@@](C(=O)N[C@@H](Cc4ccsc4)C(=O)N[C@@H](Cc4csc5ccccc45)C(=O)N[C@@H](Cc4c[nH]cn4)C(=O)N[C@@H](C)C(N)=O)(C3)NC(=O)[C@H](CC(N)=O)NC(=O)[C@H](Cc3ccccc3)NC(=O)[C@H](C)NC(=O)[C@H](C)NC(=O)[C@H](CC(=O)O)NC(=O)[C@H](CC(=O)O)NC1=O)NC(=O)[C@H](CC(C)(C)C)NC(=O)[C@H](CC(=O)O)NC2=O (stereo partly drawn) [I-827, Ac-PL3-Asp-Npg-B5-Asp-Asp-Ala-Ala-Phe-Asn-PyrS3-3Thi-BztA-His-Ala-NH2] | – | 13 | – | 2.1 | 13 | > 20 | – | – |
| CC(=O)N1CCC[C@]12CC=CCCCC1(CCCC=CCCCCOC(=O)N3CC[C@@](C(=O)N[C@@H](Cc4ccsc4)C(=O)N[C@@H](Cc4csc5ccccc45)C(=O)N[C@@H](CCC(N)=O)C(=O)N[C@H](C)C(N)=O)(C3)NC(=O)[C@H](CC(N)=O)NC(=O)[C@H](Cc3ccccc3)NC(=O)[C@H](C)NC(=O)[C@H](C)NC(=O)[C@H](CC(=O)O)NC(=O)[C@H](CC(=O)O)NC1=O)NC(=O)[C@H](CC(C)(C)C)NC(=O)[C@H](CC(=O)O)NC2=O (stereo partly drawn) [I-830, Ac-PL3-Asp-Npg-B5-Asp-Asp-Ala-Ala-Phe-Asn-PyrS3-3Thi-BztA-Gln-dAla-NH2] | – | 15 | – | 2.042 | 15 | 38.5 | – | – |
| CC(=O)N1CCC[C@]12CC=CCCCC1(CCCC=CCCCCOC(=O)N3CC[C@@](C(=O)N[C@@H](Cc4ccsc4)C(=O)N[C@@H](Cc4csc5ccccc45)C(=O)N[C@@H](Cc4c[nH]cn4)C(=O)N[C@H](C)C(N)=O)(C3)NC(=O)[C@H](CC(N)=O)NC(=O)[C@H](Cc3ccccc3)NC(=O)[C@H](C)NC(=O)[C@H](C)NC(=O)[C@H](CC(=O)O)NC(=O)[C@H](CC(=O)O)NC1=O)NC(=O)[C@H](CC(C)(C)C)NC(=O)[C@H](CC(=O)O)NC2=O (stereo partly drawn) [I-832, Ac-PL3-Asp-Npg-B5-Asp-Asp-Ala-Ala-Phe-Asn-PyrS3-3Thi-BztA-His-dAla-NH2] | – | 9 | – | 2.095 | 9 | 39.8 | – | – |
| CC(=O)N1CCC[C@]12CC=CCCCC1(CCCC=CCCCCOC(=O)N3CC[C@@](C(=O)N[C@@H](Cc4ccsc4)C(=O)N[C@@H](Cc4csc5ccccc45)C(=O)N[C@@H](CC(N)=O)C(=O)N[C@H](C)C(N)=O)(C3)NC(=O)[C@H](CC(N)=O)NC(=O)[C@H](Cc3ccccc3)NC(=O)[C@H](C)NC(=O)[C@H](C)NC(=O)[C@H](CC(=O)O)NC(=O)[C@H](CC(=O)O)NC1=O)NC(=O)[C@H](CC(C)(C)C)NC(=O)[C@H](CC(=O)O)NC2=O (stereo partly drawn) [I-834, Ac-PL3-Asp-Npg-B5-Asp-Asp-Ala-Ala-Phe-Asn-PyrS3-3Thi-BztA-Asn-dAla-NH2] | – | 14 | – | 2.08 | 14 | 33.7 | – | – |
| CC(=O)N1CCC[C@]12CC=CCCCC1(CCCC=CCCCOC(=O)N3CC[C@@](C(=O)N[C@@H](Cc4ccsc4)C(=O)N[C@@H](Cc4csc5ccccc45)C(=O)N[C@@H](CCC(N)=O)C(N)=O)(C3)NC(=O)[C@H](Cc3ccccc3)NC(=O)[C@H](Cc3ccccc3)NC(=O)[C@H](C)NC(=O)[C@H](C)NC(=O)[C@H](CN(CC(=O)O)CC(F)(F)F)NC(=O)[C@H](CC(=O)O)NC1=O)NC(=O)[C@H](CC(C)(C)C)NC(=O)[C@H](CC(=O)O)NC2=O (stereo partly drawn) [I-848, Ac-PL3-Asp-Npg-B5-Asp-TfeGA-Ala-Ala-Phe-Phe-PyrS2-3Thi-BztA-Gln-NH2] | 2.46 | 13 | – | – | – | – | 7 | – |

Next, values leading:

| chromatographic logD (CHI Log D procedure) | IC50 ([1]; read-out: beta-Catenin FP IC50) [nM] | inhibition at 10 µM ([2]; HEK293, 10 uM, read-out: NanoBRET % inh @ 10 uM) [%] | CHI Log D (CHI Log D procedure) | IC50 [1, 3] [nM] | IC50 ([2]; read-out: NanoBRET Abs IC50) [µM] | IC50 [2, 4] [µM] | IC50 ([2]; read-out: NanoBRET IC50) [µM] | SMILES |
| --- | --- | --- | --- | --- | --- | --- | --- | --- |
| 2.26 | 26 | – | – | – | – | 16.4 | – | CC(=O)N1CCC[C@]12CC=CCCCC1(CCCC=CCCCOC(=O)N3CC[C@@](C(=O)N[C@@H](Cc4ccsc4)C(=O)N[C@@H](Cc4csc5ccccc45)C(=O)N[C@@H](CCC(N)=O)C(N)=O)(C3)NC(=O)[C@H](Cc3ccccc3)NC(=O)[C@H](Cc3ccccc3)NC(=O)[C@H](C)NC(=O)[C@H](C)NC(=O)[C@H](Cc3ccc(C(=O)O)cc3)NC(=O)[C@H](CC(=O)O)NC1=O)NC(=O)[C@H](CC(C)(C)C)NC(=O)[C@H](CC(=O)O)NC2=O (stereo partly drawn) [I-850, Ac-PL3-Asp-Npg-B5-Asp-4COOHF-Ala-Ala-Phe-Phe-PyrS2-3Thi-BztA-Gln-NH2] |
| 2.15 | 16 | – | – | – | – | 7.6 | – | CC(=O)N1CCC[C@]12CC=CCCCC1(CCCC=CCCCOC(=O)N3CC[C@@](C(=O)N[C@@H](Cc4ccsc4)C(=O)N[C@@H](Cc4csc5ccccc45)C(=O)N[C@@H](CCC(N)=O)C(N)=O)(C3)NC(=O)[C@H](CC(C)C)NC(=O)[C@H](Cc3ccccc3)NC(=O)[C@H](C)NC(=O)[C@H](C)NC(=O)[C@H](Cc3ccc(C(=O)O)cc3)NC(=O)[C@H](CC(=O)O)NC1=O)NC(=O)[C@H](CC(C)(C)C)NC(=O)[C@H](CC(=O)O)NC2=O (stereo partly drawn) [I-851, Ac-PL3-Asp-Npg-B5-Asp-4COOHF-Ala-Ala-Phe-Leu-PyrS2-3Thi-BztA-Gln-NH2] |
| 2.48 | 8 | – | – | – | – | 3.6 | 4.6 | CC(=O)N1CCC[C@]12CC=CCCCC1(CCCC=CCCCOC(=O)N3CC[C@@](C(=O)N[C@@H](Cc4ccsc4)C(=O)N[C@@H](Cc4csc5ccccc45)C(=O)N[C@@H](CCC(N)=O)C(N)=O)(C3)NC(=O)[C@H](CC(C)C)NC(=O)[C@H](Cc3ccccc3)NC(=O)[C@H](C)NC(=O)[C@H](C)NC(=O)[C@H](Cc3ccccc3C(=O)O)NC(=O)[C@H](CC(=O)O)NC1=O)NC(=O)[C@H](CC(C)(C)C)NC(=O)[C@H](CC(=O)O)NC2=O (stereo partly drawn) [I-854, Ac-PL3-Asp-Npg-B5-Asp-2COOHF-Ala-Ala-Phe-Leu-PyrS2-3Thi-BztA-Gln-NH2] |
| 2.45 | 17 | – | – | – | 6.8 | – | – | CC(=O)N1CCC[C@]12CC=CCCCC1(CCCC=CCCCOC(=O)N3CC[C@@](C(=O)N[C@@H](Cc4ccsc4)C(=O)N[C@@H](Cc4csc5ccccc45)C(=O)N[C@@H](CCC(N)=O)C(N)=O)(C3)NC(=O)[C@H](CC(C)C)NC(=O)[C@H](Cc3ccccc3)NC(=O)[C@H](C)NC(=O)[C@H](C)NC(=O)[C@H](CC(N)=O)NC(=O)[C@H](CC(=O)O)NC1=O)NC(=O)[C@H](CC(C)(C)C)NC(=O)[C@H](CC(=O)O)NC2=O (stereo partly drawn) [I-856, Ac-PL3-Asp-Npg-B5-Asp-Asn-Ala-Ala-Phe-Leu-PyrS2-3Thi-BztA-Gln-NH2] |
| – | 36 | – | 2.711 | 36 | > 20 | – | – | CC(=O)N1CCC[C@]12CC=CCCCC1(CCCC=CCCCOC(=O)N3CC[C@@](C(=O)N[C@@H](Cc4ccsc4)C(=O)N[C@@H](Cc4csc5ccccc45)C(N)=O)(C3)NC(=O)[C@H](CC(N)=O)NC(=O)[C@H](Cc3ccccc3)NC(=O)[C@H](C)NC(=O)[C@H](C)NC(=O)[C@H]([C@@H](C)O)NC(=O)[C@H](CC(=O)O)NC1=O)NC(=O)[C@H](CC(C)(C)C)NC(=O)[C@H](CC(=O)O)NC2=O (stereo partly drawn) [I-859, Ac-PL3-Asp-Npg-B5-Asp-Thr-Ala-Ala-Phe-Asn-PyrS2-3Thi-BztA-NH2] |
